Experimental data from US20240116985A1, “STAPLED PEPTIDES AND METHODS THEREOF” (priority 2020, published 2024).
Read-outs that look alike come from different tables or passages of the source.

Experiments:
[1] = target: T1, beta-catenin/TCF4 engagement (Homo sapiens, UniProt P35222); test: Nano-BRET target engagement assay (B-cat-Halo & TCF4-Luc in HEK293 cells); type: cell-based; conditions: read-out: NanoBRET Abs IC50
T1 construct: expressed in transfected cells; host or cells: HEK293
T1 sequence (P35222 1-781): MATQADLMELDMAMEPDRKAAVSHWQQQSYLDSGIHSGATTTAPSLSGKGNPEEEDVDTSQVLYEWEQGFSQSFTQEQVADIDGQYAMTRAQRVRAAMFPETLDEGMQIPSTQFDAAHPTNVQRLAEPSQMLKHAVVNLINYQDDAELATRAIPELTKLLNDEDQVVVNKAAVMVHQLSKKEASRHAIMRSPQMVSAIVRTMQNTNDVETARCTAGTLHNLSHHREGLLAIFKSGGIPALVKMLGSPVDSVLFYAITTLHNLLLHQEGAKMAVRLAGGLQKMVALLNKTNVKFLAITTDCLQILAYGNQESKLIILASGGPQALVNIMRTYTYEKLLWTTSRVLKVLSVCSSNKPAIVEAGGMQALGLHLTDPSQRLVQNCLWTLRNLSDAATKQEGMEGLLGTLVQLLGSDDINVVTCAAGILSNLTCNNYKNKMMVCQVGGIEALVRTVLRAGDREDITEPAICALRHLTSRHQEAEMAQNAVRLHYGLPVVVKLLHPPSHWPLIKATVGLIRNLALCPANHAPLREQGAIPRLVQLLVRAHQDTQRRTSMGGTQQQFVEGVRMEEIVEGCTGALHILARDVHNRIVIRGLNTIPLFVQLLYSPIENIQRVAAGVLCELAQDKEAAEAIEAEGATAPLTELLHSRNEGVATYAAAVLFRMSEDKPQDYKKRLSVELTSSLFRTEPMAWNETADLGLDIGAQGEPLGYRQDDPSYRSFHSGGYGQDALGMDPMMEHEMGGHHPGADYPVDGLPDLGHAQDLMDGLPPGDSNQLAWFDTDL

[2] = target: T2, full-length beta-Catenin (Uniprot ID P35222) (Homo sapiens, UniProt P35222); test: Fluorescence polarization IC50 (beta-catenin / 5FAM-TCF4 10-53 competition); type: binding; conditions: fluorescence polarization; read-out: beta-Catenin FP IC50
T2 construct: 10 nM full-length beta-Catenin (Uniprot ID P35222)
T2 sequence (P35222 1-781): T1 sequence (P35222 1-781)

Compound CC(=O)N1CCC[C@]12CC=CCCCC1(CCCC=CCCCOC(=O)N3CC[C@@](C(=O)N[C@@H](Cc4ccccc4Cl)C(=O)N[C@@H](Cc4csc5ccccc45)C(=O)N[C@@H](CC(=O)N4CCOCC4)C(N)=O)(C3)NC(=O)[C@H]([C@@H](C)O)NC(=O)[C@H](Cc3ccccc3)NC(=O)[C@H](C)NC(=O)[C@H](C)NC(=O)[C@H](CN(CC(=O)O)CC(F)(F)F)NC(=O)[C@H](CC(=O)O)NC1=O)NC(=O)[C@H](CC(C)(C)C)NC(=O)[C@H](CC(=O)O)NC2=O (stereo partly drawn) [I-1613, Ac-PL3-Asp-Npg-B5-Asp-TfeGA-Ala-Ala-Phe-Thr-PyrS2-2C1F-BztA-MorphAsn-NH2] has an IC50 ([1]; absolute IC50) of 5200 nM and an IC50 [2] of 9 nM.
CC(=O)N1CCC[C@]12CC=CCCCC1(CCCC=CCCCOC(=O)N3CC[C@@](C(=O)N[C@@H](Cc4ccccc4C(F)(F)F)C(=O)N[C@@H](Cc4ccc(C)c(C)c4)C(=O)N[C@@H](CO)C(N)=O)(C3)NC(=O)[C@H](CC(C)C)NC(=O)[C@H](Cc3ccccc3)NC(=O)[C@H](C)NC(=O)[C@H](C)NC(=O)[C@H](Cc3cccc(C(=O)O)c3)NC(=O)[C@H](CC(=O)O)NC1=O)NC(=O)[C@H](CC(C)(C)C)NC(=O)[C@H](CC(=O)O)NC2=O (stereo partly drawn) [I-2293, Ac-PL3-Asp-Npg-B5-Asp-3COOHF-Ala-Ala-Phe-Leu-PyrS2-2F3MeF-34MeF-Ser-NH2] gave an IC50 ([1]; absolute IC50) of 5700 nM and an IC50 [2] of 15 nM.
CC(=O)N1CCC[C@]12CC=CCCCC1(CCCC=CCCCOC(=O)N3CC[C@@](C(=O)N[C@@H](Cc4ccccc4)C(=O)N[C@@H](Cc4csc5ccccc45)C(=O)N[C@@H](CC(N)=O)C(N)=O)(C3)NC(=O)[C@H](CC(N)=O)NC(=O)[C@H](Cc3ccccc3)NC(=O)[C@H](C)NC(=O)[C@H](CCCCNC(C)C)NC(=O)[C@H](CCC(N)=O)NC(=O)[C@H](CC(=O)O)NC1=O)NC(=O)[C@H](CC1CCCCC1)NC(=O)[C@H](CC(N)=O)NC2=O (stereo partly drawn) [I-2111, Ac-PL3-Asn-Cha-B5-Asp-Gln-iPrLys-Ala-Phe-Asn-PyrS2-Phe-BztA-Asn-NH2] showed an IC50 [1] greater than 20000 nM and an IC50 [2] of 180 nM.
CCCC[C@@H]1NC(=O)[C@H](Cc2ccccc2)NC(=O)[C@H](C)NC(=O)C(C)(C)NC(=O)[C@H](Cc2cccc(C(=O)O)c2)NC(=O)[C@H](CC(=O)O)NC(=O)C2(CCCC=CCCCOC(=O)N3CC[C@@](C(=O)N[C@@H](Cc4ccsc4)C(=O)N[C@@H](Cc4csc5ccccc45)C(=O)N[C@@H](CCC(=O)N4CCOCC4)C(N)=O)(C3)NC1=O)CCCC=CC[C@]1(CCCN1C(C)=O)C(=O)N[C@@H](CC(=O)O)C(=O)N[C@@H](CC(C)(C)C)C(=O)N2 (stereo partly drawn) [I-2553, Ac-PL3-Asp-Npg-B5-Asp-3COOHF-Aib-Ala-Phe-nLeu-PyrS2-3Thi-BztA-[Morph]GlnR-NH2] was tested, and the IC50 ([1]; absolute IC50) was 8200 nM and the IC50 [2] was 10 nM.
Work on CC(=O)N1CCC[C@]12CC=CCCCC1(CCCC=CCCCOC(=O)N3CC[C@@](C(=O)N[C@@H](Cc4ccccc4C(F)(F)F)C(=O)N[C@H](C(=O)N[C@@H](C)C(N)=O)[C@@H](C)c4csc5ccccc45)(C3)NC(=O)[C@H](CC(C)C)NC(=O)[C@H](Cc3ccccc3)NC(=O)[C@H](C)NC(=O)[C@H](CCC(N)=O)NC(=O)[C@H](Cc3cccc(C(=O)O)c3)NC(=O)[C@H](CC(=O)O)NC1=O)NC(=O)[C@H](CC(C)(C)C)NC(=O)[C@H](CC(=O)O)NC2=O (stereo partly drawn) [I-2457, Ac-PL3-Asp-Npg-B5-Asp-3COOHF-Gln-Ala-Phe-Leu-PyrS2-2F3MeF-SbMeBztA-Ala-NH2] yielded an IC50 ([1]; absolute IC50) of 20800 nM and an IC50 [2] of 52 nM.
CC(=O)N1CCC[C@]12CC=CCCCC1(CCCC=CCCCOC(=O)N3CC[C@@](C(=O)N[C@@H](Cc4ccccc4Cl)C(=O)N[C@@H](Cc4csc5ccccc45)C(=O)N[C@H](C(N)=O)C(C)C)(C3)NC(=O)[C@H](CO)NC(=O)[C@H](Cc3ccccc3)NC(=O)[C@H](C)NC(=O)[C@H](C)NC(=O)[C@H](Cc3cccc(C(=O)O)c3)NC(=O)[C@H](CC(=O)O)NC1=O)NC(=O)[C@H](CC(C)(C)C)NC(=O)[C@H](CC(=O)O)NC2=O (stereo partly drawn) [I-2028, Ac-PL3-Asp-Npg-B5-Asp-3COOHF-Ala-Ala-Phe-Ser-PyrS2-2C1F-BztA-Val-NH2] showed an IC50 [1] of 17600 nM and an IC50 [2] of 32 nM.
